Entries after “also recorded” stand apart in the source; their conditions may differ.
Tests used:
Format in all cases: cell-based
[1] = target: T1, CXCR4 (Homo sapiens, UniProt P61073); assay: primary 1536 w β-arrestin recruitment assay (FRET, β-lactamase reporter) in U2OS cells overexpressing CXCR4; parameters: host or cells: U2OS
Description: In an effort to identify CXCR4 activators from the NIH Molecular Library Small Molecule Repository (MLSMR), a primary screening assay was developed to measure β-arrestin recruitment to the activated G-protein coupled receptor by Florescence Resonance Energy Transfer (FRET) in U2OS cells overexpressing the CXCR4 receptor engineered with a β-lactamase (bla) reporter system (Invitrogen cat #K1779). CXCR4-bla cells plated in 1536 w were stimulated in the presence of 10 uM compound concentration. […] Using this approach, 370,620 compounds from the NIH MLSMR were successfully screened and 303 hits were identified (hit rate=0.08%; Z′=0.83). […] These compounds were graded according to activity and structure resulting in 86 compounds that met criteria as potential CXCR4 agonists for further characterization.
Chemical stability, synthetic tractability, solubility and complete dose response and potency criteria led to the prioritization of the 5-aryl-2-cyclopropyl oxazole scaffold, represented by primary hit Compound 2 (Table 1). Early structure-activity relationship was established around the 5-aryl-2-cyclopropyl oxazole core with commercially available analogs with diverse substituents in the sulfonanilide ring of the scaffold. […] Keeping the 2-OMe substituent constant a small set of electron withdrawing and electron rich substituents at the 5-position of the anilide ring were screened (entries 16-19).

[2] = target: T1, CXCR4; assay: cAMP signaling assay, oxazole scaffold (forskolin-induced adenylate cyclase, CHO-K1 CXCR4 cells); parameters: host or cells: CHO-K1; conditions: listed as UCUF-728
Description: The CXCR4 receptor is a G-protein coupled receptor (GPCR) coupled to the Gi class, whose primary role is inhibition of adenylate cyclase. The ability of UCUF-728 to induce Gi-mediated cAMP-inhibitory cellular response was tested.
Forskolin at final concentration of […] was added to all wells using the TECAN dispenser. […] PathHunter CHO-K1 CXCR4 cells (DiscoverX, Fremont, CA) were added to compounds at 3,000 cells/well, centrifuged at 1000 rpm for 30 sec and incubated for 30 min at room temperature. DMSO (Sigma Aldrich, St. Louis, MO) was normalization to 0.5%. 5 μL of 4× Eu-cAMP tracer working solution was added to all wells followed by addition of 5 μL of 4× Ulight-anti-cAMP working solution to all wells. Plates were centrifuged at 1000 rpm for 1 min and incubated for 1 hr at room temperature then read using CLARIOstar Plus (BMG LABTECH Inc., Cary, NC) Lance CAMP protocol.

[3] = system: miR-15b; assay: miR-15b expression in murine diabetic and non-diabetic fibroblasts; conditions: 24 h, response even at 0.1 μM; listed as UCUF-965
Description: (§1) Total RNA was extracted with TRIzol reagent (Invitrogen, Carlsbad, CA, USA) according to the manufacturer's established protocol. RNA was converted into cDNA using the SuperScript First-Strand Synthesis System (Invitrogen, Life Technologies). Primers and probes for mouse miR-15b and miR-29a were acquired from Applied Biosystems TaqMan gene expression assay (Applied Biosystems, Foster City, CA). Quantitative PCR was performed on a BIO-RAD CFX96 according to the manufacturer's instructions. Quantitative values of genes of interest are normalized based on U6. Samples (n=5 per group) were amplified in triplicate and results were averaged for each individual sample. The ΔΔCT method was used to calculate relative gene expression. Results are reported as mean±SD.
(§2) The expression of specific micro-RNA levels reported to be crucial in the wound-healing process were measured in order to validate and correlate the in vitro activity of UCUF-965 as a selective CXCR4 receptor modulator to micro-RNA expression. Murine diabetic and non-diabetic fibroblasts were cultured with increasing concentrations of the compound. The cells were incubated for 24 h and then total cellular RNA was isolated to examine the ability of the compound to correct the abnormal expression levels of miR-15b, miR-29a, and miR-146a. […]

[4] = system: miR-29a; assay: miR-29a expression in murine fibroblasts; conditions: 24 h; listed as UCUF-965
Description: as §1, §2

[5] = system: miR-146a; assay: miR-146a expression in murine fibroblasts; conditions: 24 h; listed as UCUF-965
Description: The expression of specific micro-RNA levels reported to be crucial in the wound-healing process were measured in order to validate and correlate the in vitro activity of UCUF-965 as a selective CXCR4 receptor modulator to micro-RNA expression. Murine diabetic and non-diabetic fibroblasts were cultured with increasing concentrations of the compound. The cells were incubated for 24 h and then total cellular RNA was isolated to examine the ability of the compound to correct the abnormal expression levels of miR-15b, miR-29a, and miR-146a. The effect of UCUF-965 on expression of miR-15b, which inhibits angiogenesis and wound repair was examined.

[6] = target: T1, CXCR4; assay: Calcium flux (Fluo-4) in CEM-CCRF cells; parameters: host or cells: CEM-CCRF; conditions: 10 μM; listed as UCUF-965
Description: Fluo-4 Direct Calcium Assay Kit (Invitrogen; F10472) reagents were prepared according to the supplier guidelines at 2× concentration and allowed to equilibrate to room temperature in the dark. […] Following incubation, 25 μL of cell suspension loaded with Fluo-4 Direct Calcium reagent was dispensed into a 384-well black wall clear-bottom plate (Corning; 3764). […] Calcium flux responses were measured on the BMG LABTECH CLARIOstar Plus (BMG LABTECH Inc., Cary, NC) using the CLARIOstar Plus supplier excitation and emission settings for Fluo-4 (Calcium Saturated). Measurements were conducted using a bottom-read kinetic well-mode with measurements occurring at 0.5 sec intervals for 150 sec and injection occurring at 10.0 sec.

T1 sequence (P61073 whole entry): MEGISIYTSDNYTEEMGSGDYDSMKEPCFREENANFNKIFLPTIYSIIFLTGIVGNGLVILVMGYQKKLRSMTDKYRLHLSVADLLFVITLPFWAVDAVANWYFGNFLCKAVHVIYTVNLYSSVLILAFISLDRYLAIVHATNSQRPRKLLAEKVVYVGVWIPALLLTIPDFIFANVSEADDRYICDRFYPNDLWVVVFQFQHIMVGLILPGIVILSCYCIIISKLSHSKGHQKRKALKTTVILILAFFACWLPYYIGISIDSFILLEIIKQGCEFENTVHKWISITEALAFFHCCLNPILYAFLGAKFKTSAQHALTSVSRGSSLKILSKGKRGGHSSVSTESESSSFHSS

COc1ccc(OC)c(NS(=O)(=O)c2ccc(-c3cnc(C4CC4)o3)cc2)c1 [Oxazole Entry 19, 4-(2-Cyclopropyloxazol-5-yl)-N-(2,5-dimethoxyphenyl)benzenesulfonamide]
EC50 ([1]; 1536 w screening platform): 1100 nM
CXCR4 b-arrestin Emax (%) ([1]; 1536 w, normalized to SDF-1α): 60%
cAMP signaling / forskolin-induced adenylate cyclase [2]: did not inhibit forskolin-induced adenylate cyclase; also recorded: does not show dose-dependent activity

CCOc1ccccc1-c1nnc2n1N=C(c1ccc(N3CCCC3)cc1)CS2 [Thiadiazine Entry 23, 3-(2-ethoxyphenyl)-6-(4-(pyrrolidin-1-yl)phenyl)-7H-[1,2,4]triazolo[3,4-b][1,3,4]thiadiazine]
miR-15b expression [3]: decreased the expression of miR-15b; also recorded: suppression of miR15b
miR-29a expression [4]: significant decrease of miR-29a levels; also recorded: suppression of miR15b and miR29a
miR-146a expression [5]: increase of miR-146a levels; also recorded: induction of miR146a
calcium flux activity [6]: induce CXCR4-mediated calcium flux
